Measured values reported in patent US7265152B2 (ViroPharma Incorporated, priority 2002, dated 2007).

What was measured:
[1] = tested on: HCV replicon (BB7 sequence) in Huh-7-Clone A cells; experiment: HCV replicon assay: ELISA of NS5A protein in replicon-containing cells (Inhibition of Viral RNA Replication); type: cell-based; settings: Hepatitis C virus; HCV replicon assay; ranges of EC50; read-out: Replicon
Summary of the method: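 EC50 taken from an 8-point serially diluted dose curve, with NS5A level as read-out: fixed cells probed with primary monoclonal and HRP-conjugated secondary, TMB developed 30 min, OD 650 nm. Compound exposure 72 h in Huh-7-Clone A replicon cells (BB7 sequence).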

[2] = target: T1, HCV NS5B (Hepatitis C virus genotype 1b, UniProt Q9WMX2); experiment: Inhibition of viral RNA-dependent RNA polymerase (RdRp), in vitro biochemical assay; parameters: species or system HCV genotype 1b virus (BB7); settings: HCV NS5B RdRp, BB7; activity class; read-out: HCV pol-BB7 IC50
T1 construct: fusion protein, of which the carboxyl terminal 21 amino acids were removed to enhance its solubility; His tag (GSHHHHHH); made in house; host or cells: E. coli
Summary of the method: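 IC50 values are the concentrations that halve in vitro RNA synthesis by HCV NS5B polymerase. The enzyme was a C-terminally truncated (Δ21), His-tagged genotype 1b (BB7 consensus) protein purified from E. coli.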

`CNC(=O)c1c(-c2ccc(F)cc2)oc2cc(-c3c(COC)noc3C)c(OC)cc12` [Example 336, 2-(4-Fluoro-phenyl)-5-methoxy-6-(3-methoxymethyl-5-methyl-isoxazol-4-yl)-benzofuran-3-carboxylic acid methylamide] gave an EC50 [1] of less than 1000 nM and an IC50 [2] of no more than 500 nM.

`CCc1cc2c(C(=O)NC)c(-c3ccc(F)cc3)oc2cc1N(CCF)S(C)(=O)=O` [Example 337, 5-Ethyl-6-[(2-fluoro-ethyl)-methanesulfonyl-amino]-2-(4-fluoro-phenyl)-benzofuran-3-carboxylic acid methylamide] gave an EC50 [1] of less than 1000 nM and an IC50 [2] of no more than 500 nM.

With `CCCOc1cc2c(C(=O)NC)c(-c3ccc(F)cc3)oc2cc1N(CCC)S(C)(=O)=O` [Example 338, 2-(4-Fluoro-phenyl)-6-(methanesulfonyl-propyl-amino)-5-propoxy-benzofuran-3-carboxylic acid methylamide] the EC50 [1] was less than 1000 nM and the IC50 [2] was no more than 500 nM.

Work on `CCc1cc2c(C(=O)NC)c(-c3ccc(F)cc3)oc2cc1C(C)(C)O` [Example 339, 5-Ethyl-2-(4-fluoro-phenyl)-6-(1-hydroxy-1-methyl-ethyl)-benzofuran-3-carboxylic acid methylamide] yielded an EC50 [1] of less than 1000 nM and an IC50 [2] of no more than 500 nM.

Compound `CCc1cc2c(C(=O)NC)c(-c3ccc(F)cc3)oc2cc1C(C)=O` [Example 340, 6-Acetyl-5-ethyl-2-(4-fluoro-phenyl)-benzofuran-3-carboxylic acid methylamide] has an EC50 [1] of less than 1000 nM and an IC50 [2] of no more than 500 nM.

`CCNc1cc2oc(-c3ccc(F)cc3)c(C(=O)NC)c2c(Cl)c1O` [Example 341, 4-Chloro-6-ethylamino-2-(4-fluoro-phenyl)-5-hydroxy-benzofuran-3-carboxylic acid methylamide] was tested, and the EC50 [1] was greater than 100000 nM and the IC50 [2] was 500 to 5000 nM.

For `CCNc1cc2oc(-c3ccc(F)cc3)c(C(=O)NC)c2c(Cl)c1OS(C)(=O)=O` [Example 342, Methanesulfonic acid 4-chloro-6-ethylamino-2-(4-fluoro-phenyl)-3-methylcarbamoyl-benzofuran-5-yl ester], the EC50 [1] was less than 10000 nM and the IC50 [2] was no more than 500 nM.

With `CCc1cc2c(C(=O)NC)c(-c3ccc(F)cc3)oc2cc1N(Cc1cscn1)S(C)(=O)=O` [Example 343, 5-Ethyl-2-(4-fluoro-phenyl)-6-(methanesulfonyl-thiazol-4-ylmethyl-amino)-benzofuran-3-carboxylic acid methylamide] the EC50 [1] was less than 1000 nM and the IC50 [2] was no more than 500 nM.

In the case of `CNC(=O)c1c(-c2ccc(F)cc2)oc2cc(-c3c(COC)noc3C3CC3)c(OC)cc12` [Example 344, 6-(5-Cyclopropyl-3-methoxymethyl-isoxazol-4-yl)-2-(4-fluoro-phenyl)-5-methoxy-benzofuran-3-carboxylic acid methylamide], the EC50 [1] is reported as less than 1000 nM and the IC50 [2] is reported as no more than 500 nM.

For `CNC(=O)c1c(-c2ccc(F)cc2)oc2cc(C3CCN(C(C)=O)C3)c(OC)cc12` (centres unmarked) [Example 345, 6-(1-Acetyl-pyrrolidin-3-yl)-2-(4-fluoro-phenyl)-5-methoxy-benzofuran-3-carboxylic acid methylamide], the EC50 [1] was less than 10000 nM and the IC50 [2] was no more than 500 nM.

Compound `CNC(=O)c1c(-c2ccc(F)cc2)oc2cc(N(C)S(C)(=O)=O)c(OCc3ccc(F)c(F)c3)cc12` [Example 346, 5-(3,4-Difluoro-benzyloxy)-2-(4-fluoro-phenyl)-6-(methanesulfonyl-methyl-amino)-benzofuran-3-carboxylic acid methylamide] has an EC50 [1] of less than 1000 nM and an IC50 [2] of no more than 500 nM.

Work on `CNC(=O)c1c(-c2ccc(F)cc2)oc2cc(N(C)S(C)(=O)=O)c(OCc3ccccc3OC(F)F)cc12` [Example 347, 5-(2-Difluoromethoxy-benzyloxy)-2-(4-fluoro-phenyl)-6-(methanesulfonyl-methyl-amino)-benzofuran-3-carboxylic acid methylamide] yielded an EC50 [1] of less than 1000 nM and an IC50 [2] of no more than 500 nM.

`CCCOc1cc2c(C(=O)NC)c(-c3ccc(F)cc3)oc2cc1N(C)S(C)(=O)=O` [Example 348, 2-(4-Fluoro-phenyl)-6-(methanesulfonyl-methyl-amino)-5-propoxy-benzofuran-3-carboxylic acid methylamide] showed an EC50 [1] of less than 1000 nM and an IC50 [2] of no more than 500 nM.

In the case of `C=CCOc1cc2c(C(=O)NC)c(-c3ccc(F)cc3)oc2cc1N(C)S(C)(=O)=O` [Example 349, 5-Allyloxy-2-(4-fluoro-phenyl)-6-(methanesulfonyl-methyl-amino)-benzofuran-3-carboxylic acid methylamide], the EC50 [1] is reported as less than 1000 nM and the IC50 [2] is reported as no more than 500 nM.

In the case of `CCOCc1cc(-c2cc3oc(-c4ccc(F)cc4)c(C(=O)NC)c3cc2OC)no1` [Example 350, 6-(5-Ethoxymethyl-isoxazol-3-yl)-2-(4-fluoro-phenyl)-5-methoxy-benzofuran-3-carboxylic acid methylamide], the EC50 [1] is reported as less than 1000 nM and the IC50 [2] is reported as no more than 500 nM.

Compound `CNC(=O)c1c(-c2ccc(F)cc2)oc2cc(N(C)S(C)(=O)=O)c(OCC3CC3)cc12` [Example 351, 5-Cyclopropylmethoxy-2-(4-fluoro-phenyl)-6-(methanesulfonyl-methyl-amino)-benzofuran-3-carboxylic acid methylamide] has an EC50 [1] of less than 1000 nM and an IC50 [2] of no more than 500 nM.

In the case of `CNC(=O)c1c(-c2ccc(F)cc2)oc2cc(N(C)S(C)(=O)=O)c(OCc3cc(OC)cc(OC)c3)cc12` [Example 352, 5-(3,5-Dimethoxy-benzyloxy)-2-(4-fluoro-phenyl)-6-(methanesulfonyl-methyl-amino)-benzofuran-3-carboxylic acid methylamide], the EC50 [1] is reported as less than 1000 nM and the IC50 [2] is reported as no more than 500 nM.

Compound `CNC(=O)c1c(-c2ccc(F)cc2)oc2cc(N(C)S(C)(=O)=O)c(OCc3ccc(S(C)(=O)=O)cc3)cc12` [Example 353, 2-(4-Fluoro-phenyl)-5-(4-methanesulfonyl-benzyloxy)-6-(methanesulfonyl-methyl-amino)-benzofuran-3-carboxylic acid methylamide] has an EC50 [1] of less than 1000 nM and an IC50 [2] of no more than 500 nM.

`CNC(=O)c1c(-c2ccc(F)cc2)oc2cc(N(C)S(C)(=O)=O)c(OCC(=O)c3ccc(OC)cc3)cc12` [Example 355, 2-(4-Fluoro-phenyl)-6-(methanesulfonyl-methyl-amino)-5-[2-(4-methoxy-phenyl)-2-oxo-ethoxy]-benzofuran-3-carboxylic acid methylamide] showed an EC50 [1] of less than 1000 nM and an IC50 [2] of no more than 500 nM.

For `CNC(=O)c1c(-c2ccc(F)cc2)oc2cc(N(C)S(C)(=O)=O)c(OCc3cccc(C#N)c3)cc12` [Example 356, 5-(3-Cyano-benzyloxy)-2-(4-fluoro-phenyl)-6-(methanesulfonyl-methyl-amino)-benzofuran-3-carboxylic acid methylamide], the EC50 [1] was less than 1000 nM and the IC50 [2] was no more than 500 nM.

`CNC(=O)c1c(-c2ccc(F)cc2)oc2cc(N(C)S(C)(=O)=O)c(OCc3ccc(C#N)cc3)cc12` [Example 357, 5-(4-Cyano-benzyloxy)-2-(4-fluoro-phenyl)-6-(methanesulfonyl-methyl-amino)-benzofuran-3-carboxylic acid methylamide] showed an EC50 [1] of less than 1000 nM and an IC50 [2] of no more than 500 nM.

`CCOC(=O)c1ccc(NC(=O)COc2cc3c(C(=O)NC)c(-c4ccc(F)cc4)oc3cc2N(C)S(C)(=O)=O)cc1` [Example 359, 4-{2-[2-(4-Fluoro-phenyl)-6-(methanesulfonyl-methyl-amino)-3-methylcarbamoyl-benzofuran-5-yloxy]-acetylamino}-benzoic acid ethyl ester] gave an EC50 [1] of less than 10000 nM and an IC50 [2] of no more than 500 nM.
